Measured values as given in ChEMBL document CHEMBL4138175, “Newly designed organotin(IV) carboxylates with peptide linkage: Synthesis, structural elucidation, physicochemical characterizations and pharmacological investigations” (Eur J Med Chem, 2018).
Active and inactive are the calls of the source. No cut-off for these calls is given here.

Experiments:
NCI-H157 [1] = assay: Cytotoxicity against human NCI-H157 cells at 100 uM after 48 hrs by sulforhodamine B assay; assay type: functional
NCI-H157 [2] = assay: Cytotoxicity against human NCI-H157 cells at 10 uM after 48 hrs by sulforhodamine B assay; assay type: functional
NCI-H157 [3] = assay: Cytotoxicity against human NCI-H157 cells at 1 uM after 48 hrs by sulforhodamine B assay; assay type: functional
NCI-H157 [4] = assay: Cytotoxicity against human NCI-H157 cells at 0.1 uM after 48 hrs by sulforhodamine B assay; assay type: functional
Leishmania major [5] = assay: Antileishmanial activity against Leishmania major promastigotes at 100 uM after 72 hrs by MTT assay relative to control; assay type: functional
Leishmania major [6] = assay: Antileishmanial activity against Leishmania major promastigotes at 10 uM after 72 hrs by MTT assay relative to control; assay type: functional
Leishmania major [7] = assay: Antileishmanial activity against Leishmania major promastigotes at 1 uM after 72 hrs by MTT assay relative to control; assay type: functional
Leishmania major [8] = assay: Antileishmanial activity against Leishmania major promastigotes at 0.1 uM after 72 hrs by MTT assay relative to control; assay type: functional
Klebsiella pneumoniae [9] = assay: Antibacterial activity against Klebsiella pneumoniae assessed as zone of inhibition after 24 to 48 hrs by well diffusion method; assay type: functional
Streptococcus pyogenes = assay: Antibacterial activity against Streptococcus pyogenes assessed as zone of inhibition after 24 to 48 hrs by well diffusion method; assay type: functional
[10] = system: Staphylococcus epidermidis; assay: Antibacterial activity against Staphylococcus epidermidis assessed as zone of inhibition after 24 to 48 hrs by well diffusion method; assay type: functional
Staphylococcus aureus = assay: Antibacterial activity against Staphylococcus aureus assessed as zone of inhibition after 24 to 48 hrs by well diffusion method; assay type: functional
Serratia marcescens [11] = assay: Antibacterial activity against Serratia marcescens assessed as zone of inhibition after 24 to 48 hrs by well diffusion method; assay type: functional
Pseudomonas aeruginosa [12] = assay: Antibacterial activity against Pseudomonas aeruginosa assessed as zone of inhibition after 24 to 48 hrs by well diffusion method; assay type: functional
Escherichia coli [13] = assay: Antibacterial activity against Escherichia coli assessed as zone of inhibition after 24 to 48 hrs by well diffusion method; assay type: functional
Klebsiella pneumoniae [14] = assay: Antibacterial activity against Klebsiella pneumoniae assessed as zone of inhibition by measuring activity index after 24 to 48 hrs by well diffusion method relative to tetracycline; assay type: functional, organism-based
Klebsiella pneumoniae [15] = assay: Antibacterial activity against Klebsiella pneumoniae assessed as zone of inhibition by measuring activity index after 24 to 48 hrs by well diffusion method relative to ampicillin; assay type: functional, organism-based
Klebsiella pneumoniae [16] = assay: Antibacterial activity against Klebsiella pneumoniae assessed as zone of inhibition by measuring activity index after 24 to 48 hrs by well diffusion method relative to amoxicillin; assay type: functional, organism-based
[17] = system: Staphylococcus epidermidis; assay: Antibacterial activity against Staphylococcus epidermidis assessed as zone of inhibition by measuring activity index after 24 to 48 hrs by well diffusion method relative to tetracycline; assay type: functional, organism-based
[18] = system: Staphylococcus epidermidis; assay: Antibacterial activity against Staphylococcus epidermidis assessed as zone of inhibition by measuring activity index after 24 to 48 hrs by well diffusion method relative to amoxicillin; assay type: functional, organism-based
Serratia marcescens [19] = assay: Antibacterial activity against Serratia marcescens assessed as zone of inhibition by measuring activity index after 24 to 48 hrs by well diffusion method relative to penicillin G; assay type: functional
Serratia marcescens [20] = assay: Antibacterial activity against Serratia marcescens assessed as zone of inhibition by measuring activity index after 24 to 48 hrs by well diffusion method relative to ampicillin; assay type: functional
Serratia marcescens [21] = assay: Antibacterial activity against Serratia marcescens assessed as zone of inhibition by measuring activity index after 24 to 48 hrs by well diffusion method relative to amoxicillin; assay type: functional
Pseudomonas aeruginosa [22] = assay: Antibacterial activity against Pseudomonas aeruginosa assessed as zone of inhibition by measuring activity index after 24 to 48 hrs by well diffusion method relative to tetracycline; assay type: functional, organism-based
Pseudomonas aeruginosa [23] = assay: Antibacterial activity against Pseudomonas aeruginosa assessed as zone of inhibition by measuring activity index after 24 to 48 hrs by well diffusion method relative to penicillin G; assay type: functional, organism-based
Pseudomonas aeruginosa [24] = assay: Antibacterial activity against Pseudomonas aeruginosa assessed as zone of inhibition by measuring activity index after 24 to 48 hrs by well diffusion method relative to amoxicillin; assay type: functional, organism-based
Escherichia coli [25] = assay: Antibacterial activity against Escherichia coli assessed as zone of inhibition by measuring activity index after 24 to 48 hrs by well diffusion method relative to tetracycline; assay type: functional
NCI-H157 [26] = assay: Cytotoxicity against human NCI-H157 cells after 48 hrs by sulforhodamine B assay; assay type: functional, cell-based
Pseudomonas aeruginosa [27] = assay: Antibacterial activity against Pseudomonas aeruginosa assessed as zone of inhibition by measuring activity index after 24 to 48 hrs by well diffusion method relative to ampicillin; assay type: functional, organism-based

| Substance | Activity (NCI-H157 [1]) | Activity (NCI-H157 [2]) | Activity (NCI-H157 [3]) | Activity (NCI-H157 [4]) | Activity (Leishmania major [5]) | Activity (Leishmania major [6]) | Activity (Leishmania major [7]) | Activity (Leishmania major [8]) | inhibition zone (IZ) (Klebsiella pneumoniae [9]) | inhibition zone (IZ) (Streptococcus pyogenes) | inhibition zone (IZ) [10] | inhibition zone (IZ) (Staphylococcus aureus) | inhibition zone (IZ) (Serratia marcescens [11]) | inhibition zone (IZ) (Pseudomonas aeruginosa [12]) | inhibition zone (IZ) (Escherichia coli [13]) | Activity index (Klebsiella pneumoniae [14]) | Activity index (Klebsiella pneumoniae [15]) | Activity index (Klebsiella pneumoniae [16]) | Activity index [17] | Activity index [18] | further results |
| --- | --- | --- | --- | --- | --- | --- | --- | --- | --- | --- | --- | --- | --- | --- | --- | --- | --- | --- | --- | --- | --- |
| Triphenylstannyl 2-(4-methoxy-2-nitrophenylcarbamoyl)benzoate | 61.7% | 58.4% | 55.7% | 52.3% | 64.3% | 59.4% | 53.6% | 50.7% | 20.2 mm | 11.7 mm | 19 mm | 4.66 mm | 4.66 mm | 22.7 mm | 11 mm | 1.44 | 3.37 | 3.37 | 1.9 | 9.5 | Activity index (Serratia marcescens [19]): 0.58; Activity index (Serratia marcescens [20]): 0.58; Activity index (Serratia marcescens [21]): 0.78; Activity index (Pseudomonas aeruginosa [22]): 3.78; Activity index (Pseudomonas aeruginosa [23]): 3.78; Activity index (Pseudomonas aeruginosa [24]): 3.78; Activity index (Escherichia coli [25]): 5.5; Activity (NCI-H157 [26]): Dose-dependent effect |
| Dibenzylstannanediyl bis 2-(4-methoxy-2-nitrophenylcarbamoyl)benzoate | 74.5% | 71.3% | 67.4% | 62.7% | 72.4% | 66.3% | 62.5% | 60.9% | 15 mm | 10.7 mm | 11 mm | 10.7 mm | 7.66 mm | 14.3 mm | 9 mm | 1.07 | 2.5 | 2.5 | 1.1 | 5.5 | Activity index (Serratia marcescens [19]): 0.96; Activity index (Serratia marcescens [20]): 0.96; Activity index (Serratia marcescens [21]): 1.28; Activity index (Pseudomonas aeruginosa [22]): 2.39; Activity index (Pseudomonas aeruginosa [23]): 2.39; Activity index (Pseudomonas aeruginosa [24]): 2.39; Activity index (Escherichia coli [25]): 4.5; Activity (NCI-H157 [26]): Dose-dependent effect |
| Dibutylstannanediyl bis 2-(4-methoxy-2-nitrophenylcarbamoyl)benzoate | 55.5% | 52.6% | 47.4% | 43.9% | 54.2% | 50.6% | 49.6% | 47.6% | 26 mm | 6 mm | 15 mm | 24 mm | 18.3 mm | inactive | 19.3 mm | 1.88 | 4.34 | 4.34 | 1.5 | 7.5 | Activity index (Serratia marcescens [19]): 2.29; Activity index (Serratia marcescens [20]): 2.29; Activity index (Serratia marcescens [21]): 3.05; Activity_index (Pseudomonas aeruginosa [27]): inactive; Activity index (Escherichia coli [25]): 9.67; Activity (NCI-H157 [26]): Dose-dependent effect |
